Assay [1] has as its system Human neutrophils from healthy volunteers. The experiment in a line: NETosis quantitation by CNN image analysis in adherent neutrophils from healthy volunteers. Type of assay: cell-based. To be noted: read-out: EC50 (concentration inducing 50% of neutrophils to undergo NETosis). An excerpt: This specification describes an assay for the assessment of 1) the EC50 of NETotic agonists in adherent human neutrophils and 2) the NETosis mechanism specific to these agonists. Neutrophils were isolated from peripheral blood of healthy volunteers and allowed to adhere to 96-well plates before stimulation with different concentrations of agonists. We established our assay with two widely used agonists, PMA, a PKC activator and A23187, a Ca+2 ionophore. NETosis data were acquired using the automated BD Pathway 855 Bio-imaging Systems. An image processing algorithm was created to distinguish two populations related to neutrophil nuclear size, intensity and texture. Our assay is the first to describe a semi-automated imaging and analysis method for the study of NETosis and is a positive step towards standardizing the quantitation of NETosis in isolated cells. This assay has potential applications in screening novel pharmaceuticals and in analyzing cells from patients with various diseases.
Adherent neutrophils were treated for 2 hours with either agonist or DMSO vehicle. DMSO treatment alone causes neutrophil NETosis reaching a maximum response of 30% with 0.16% DMSO. The resulting NETotic nuclei are visually indistinguishable from those observed with PMA- or A23187-treatments as shown graph 204. DMSO is the recommended solvent for both PMA and A23187. […]

The subject of assay [2] is neutrophils from SCD patients. The experiment in a line: NETosis quantitation by CNN image analysis in neutrophils from SCD patients at steady-state. Type of assay: cell-based, human. As to conditions: SCD patients at steady-state (n=7), 2 hours treatment, two-way ANOVA. An excerpt: We next applied this assay to an inflammatory disease that has been suspected of being influenced by NETosis; patients with sickle cell disease (SCD) suffer chronic inflammation due to recurrent ischemia/reperfusion injuries and are hypercoagulable. The hypercoagulability is thought to be due to at least in part to circulating NETs similar to other inflammatory diseases. Soluble components presumably from NETs (DNA and nucleosomes) are detectible in plasma from both SCD patients and humanized SCD mice^11, 12. Furthermore, neutrophils from healthy individuals exposed to plasma from SCD patients causes NET generation. Because SCD neutrophils function at a reduced capacity for oxidative burst and produce less ROS than non-SCD neutrophils, we asked whether the ROS-dependent NETosis pathway is affected^13-15. Only patients at steady-state were included in the study. […] Reduction of neutrophils' oxidative burst capacity also occurs in conditions such as chronic granulomatous disease (CGD), and results in reduced NETosis^16. The divergence of our results from those previously published are possibly due to our observation of NETosis in neutrophils directly without the use of a surrogate NETosis biomarker.
The same conditions for cell isolation and treatment were used for neutrophils from SCD patients at steady-state (n=7), and the results are shown in graphs 206 and 208. […]

pEC50: −log10 of the molar value. “Also recorded” adds a separate entry of the source. Where two headings read alike, the source gives them in different places.

As for `CNc1ccc2oc(C[C@H]3O[C@@]4(CC[C@H]3C)O[C@H]([C@H](C)C(=O)c3ccc[nH]3)[C@H](C)C[C@H]4C)nc2c1C(=O)O` [A23187, Calcimycin], in assay [1] (Homo sapiens, Neutrophil, n=8, 2 hours treatment, PADIV-dependent pathway), the pEC50 is 6.05. Also, the “NETosis response of SCD neutrophils compared with non-SCD neutrophils” value in assay [2] is “responded similarly; also recorded: little difference was observed between SCD and non-SCD”.

In the case of `CCCCCCCCCCCCCC(=O)O[C@@H]1[C@@H](C)[C@@]2(O)[C@@H](C=C(CO)C[C@]3(O)C(=O)C(C)=C[C@@H]23)[C@@H]2C(C)(C)[C@]12OC(C)=O` [PMA], in assay [1] (n=11, 2 hours treatment, ROS-dependent pathway), the pEC50 is 8.68. Also, the “NETosis response of SCD neutrophils compared with non-SCD neutrophils” value in assay [2] is reported as “comparatively insensitive; also recorded: responded poorly”.

(Values after patent US10303923B1, “Quantitation of NETosis using image analysis” (The University of North Carolina at Chapel Hill, priority 2018, dated 2019).)
